Measurements reported in patent US20210052589A1, “COMPOUNDS FOR TREATING ALZHEIMER'S DISEASE” (Amabiotics, priority 2018, published 2021).

How the values were obtained:
Rat cortical neurons [1] = assay: Neuron survival (number of MAP-2 positive neurons) after Aβ1-42 intoxication; assay type: cell-based; conditions: for survival of neurons: p<0.05
Protocol: (§1) Rat cortical neurons are cultured as described by Callizot et al., (2013) with modifications. Briefly pregnant female rat (Wistar) of 15 days of gestation are killed. Foetuses are collected and immediately placed in ice-cold L15 Leibovitz medium with a 2% penicillin (10,000 U/mL) and streptomycin (10 mg/ml) solution (PS) and 1% bovine serum albumin (BSA). Cortex are treated for 20 min at 37° C. with a trypsin- EDTA solution at a final concentration of 0.05% trypsin and 0.02% EDTA. The dissociation is stopped by addition of Dulbecco's modified Eagle's medium (DMEM) with 4.5 g/L of glucose, containing DNAse I grade II (final concentration 0.5 mg/ml) and 10% fetal calf serum (FCS). Cells are mechanically dissociated by three forced passages through the tip of a 10-ml pipette. Cells are then centrifuged at 515×g for 10 min at 4° C. The supernatant is discarded, and the pellet is resuspended in a defined culture medium consisting of Neurobasal medium with a 2% solution of B27 supplement, 2 mmol/litter of L-glutamine, 2% of PS solution, 10 ng/mL of brain-derived neurotrophic factor (BDNF), 2% of heat-inactivated horse serum, 2% of heat-inactivated FCS, 1 g/L of glucose, 1 mM of sodium pyruvate, and 100 μM of non-essential amino acids. Viable cells are counted in a Neubauer cytometer, using the trypan blue exclusion test. The cells are seeded at a density of 45,000 per well in 96-well plates (for immunostaining) precoated with poly-L-lysine and are cultured at 37° C. in an air (95%)-CO2 (5%) incubator. For 96 wells plates, only 60 wells are used. The wells of first and last lines and columns are not used (to avoid the edge effect) and are filled with sterile water. The medium is changed every 2 days.
(§2) On day 10 of culture, queuine is dissolved in the culture medium and pre-incubated with primary cortical neurons for 24H, before Aβ1-42 exposure. Then on day 11 of culture, the cortical neurons are intoxicated with AB solutions. The Aβ1-42 preparation is done following the procedure described by Callizot et al., (2013). Briefly, Aβ1-42 peptide are dissolved in the defined culture medium mentioned above, at an initial concentration of 40 μmol/L. This solution is gently agitated for 3 days at 37° C. in the dark and immediately used after being properly diluted in culture medium to the concentration used (5 μM, 0.5μM oligomers). […]
(§3) Each compound is tested on 1 culture in a 96 well plate (6 wells per conditions). […] The following conditions are assessed:
(§4) 72 hours after Aβ1-42 application, the cell culture supernatant are collected cytokine quantification (e.g. TNFα) and the cortical neurons are fixed by a cold solution of ethanol (95%) and acetic acid (5%) for 5 min at −20° C. […]

Rat cortical neurons [2] = assay: Total neurite network (length of MAP-2 positive neurite) after Aβ1-42 intoxication; assay type: cell-based
Protocol: as §1, §2, §3, §4

Tau = assay: Hyperphosphorylation of Tau in neuron cytoplasm (AT100, overlapping Tau/MAP-2) after Aβ1-42 intoxication; assay type: cell-based, rat
Protocol: as §1
(§5) On day 10 of culture, queuine is dissolved in the culture medium and pre-incubated with primary cortical neurons for 24H, before Aβ1-42 exposure. Then on day 11 of culture, the cortical neurons are intoxicated with AB solutions. The Aβ1-42 preparation is done following the procedure described by Callizot et al., (2013). Briefly, Aβ1-42 peptide are dissolved in the defined culture medium mentioned above, at an initial concentration of 40 μmol/L. This solution is gently agitated for 3 days at 37° C. in the dark and immediately used after being properly diluted in culture medium to the concentration used (5 μM, 0.5μM oligomers).
(§6) Aβ1-42 preparation is added to a final concentration of 5μM (0.5 μM oligomers, ABO) diluted in control medium in presence of queuine, for 72 hours.
Each compound is tested on 1 culture in a 96 well plate (6 wells per conditions). For 96 wells plates, only 60 wells are used. The wells of first and last lines and columns are not used (to avoid the edge effect) and are filled with sterile water. Queuine is added 24h before Aβ1-42 application. The following conditions are assessed:
as §4

TNF-α = assay: TNFa release in a culture of cortical neurons and microglia after Aβ1-42 injury (ELISA); assay type: cell-based, rat; conditions: for TNFa (% of vehicle group): control 100.00, Aβ1-42 alone 126.75; for level of TNFα (in words): Aβ1-42 (5 μM)
Protocol: as §1, §5, §6
72 hours after Aβ1-42 application, the cell culture supernatant are collected cytokine quantification (e.g. TNFα) and the cortical neurons are fixed by a cold solution of ethanol (95%) and acetic acid (5%) for 5 min at −20° C. After permeabilization with 0.1% of saponin, cells are incubated for 2 hours with: • a) chicken polyclonal antibody antimicrotubule-associated-protein 2 (MAP-2) at dilution of 1/1000 in PBS containing 1% fetal calf serum and 0.1% of saponin (this antibody stains specifically cell bodies and neurites, allowing study of neuronal cell death and neurite network). • b) mouse monoclonal anti-tau phosphor (Thr212, Ser214) at the dilution of 1/100 in PBS containing 1% foetal calf serum and 0.1% of saponin. • c) rabbit polyclonal antibody anti-SIRP alpha/CD172a at dilution of 1/400 in PBS containing 1% fetal calf serum and 0.1% of saponin (this antibody stains specifically the microglia and is allow to evaluate the activation of the microglial cells).
In order to assess the activation of microglia in the cell culture, the levels of TNF-α are quantified in cell culture supernatant after 72h (end of the culture) by ELISA.

[3] = queuine 300 nM added 24h before Aβ1-42 (5 μM, 72 H), p<0.05
[4] = queuine 1 μM added 24h before Aβ1-42 (5 μM, 72 H), p<0.05
[5] = queuine 3 μM added 24h before Aβ1-42 (5 μM, 72 H), p<0.05
[6] = BDNF 50 ng/ml, Aβ1-42 (5 μM, 72 H)

“7-(3,4-trans-4,5-cis-dihydroxy-1-cyclopenten-3-ylaminomethyl)-7-deazaguanine [queuine]” was tested, and the survival of neurons (Rat cortical neurons [1]; queuine 100 nM added 24h before Aβ1-42 (5 μM, 72 H)) was “significantly restores the survival of neurons”, the survival of neurons (Rat cortical neurons [1]; queuine 300 nM added 24h before Aβ1-42 (5 μM, 72 H)) was “significantly restores the survival of neurons” and the survival of neurons (Rat cortical neurons [1]; queuine 1 μM added 24h before Aβ1-42 (5 μM, 72 H)) was “significantly restores the survival of neurons”. The neurite network (Rat cortical neurons [2]; [3]) was “significantly restores the neurite network”, the neurite network (Rat cortical neurons [2]; [4]) was “significantly restores the neurite network” and the neurite network (Rat cortical neurons [2]; [5]) was “significantly restores the neurite network”. For the same molecule, the Tau hyperphosphorylation (Tau; queuine 100 nM added 24h before Aβ1-42 (5 μM, 72 H), p<0.05) was “restores the level of hyperphosphorylation of Tau”, the Tau hyperphosphorylation (Tau; [3]) was “restores the level of hyperphosphorylation of Tau” and the Tau hyperphosphorylation (Tau; [4]) was “restores the level of hyperphosphorylation of Tau”. For the same molecule, the Tau hyperphosphorylation (Tau; [5]) was “restores the level of hyperphosphorylation of Tau”, the “TNFa (% of vehicle group)” value (TNF-α; Aβ1-42 (5 μM, 72 H) + queuine (300 nM)) was 105.54 % of vehicle group and the “TNFa (% of vehicle group)” value (TNF-α; Aβ1-42 (5 μM, 72 H) + queuine (1 μM)) was 87.33 % of vehicle group. For the same molecule, the “TNFa (% of vehicle group)” value (TNF-α; Aβ1-42 (5 μM, 72 H) + queuine (3 μM)) was 93.32 % of vehicle group, the “level of TNFα (in words)” value (TNF-α; queuine 300 nM, p<0.05) was “restores the level of TNFα” and the “level of TNFα (in words)” value (TNF-α; queuine 1 μM, p<0.05) was “restores the level of TNFα”. The “level of TNFα (in words)” value (TNF-α; queuine 3 μM, p<0.05) was “restores the level of TNFα”.

B1: BDNF: brain-derived neurotrophic factor, used at 50 ng/ml as positive control and reference compound (protein, UniProt P23560 19-247, looked up)
Neurotrophic factor BDNF …: APMKEANIRGQGGLAYPGVRTHGTLESVNGPKAGSRGLTSLADTFEHVIEELLDEDQKVRPNEENNKDADLYTSRVMLSSQVPLEPPLLFLLEEYKNYLDAANMSMRVRRHSDPARRGELSVCDSISEWVTAADKKTAVDMSGGTVTVLEKVPVSKGQLKQYFYETKCNPMGYTKEGCRGIDKRHWNSQCRTTQSYVRALTMDSKKRIGWRFIRIDTSCVCTLTIKRGR
In the case of B1, the “level neuronal staining for MAP-2 (number of cortical neurons)” value (Rat cortical neurons [1]; [6]) is reported as “restores the level neuronal staining for MAP-2”, the neurite network (Rat cortical neurons [2]; [6]) is reported as “restores the neurite network” and the Tau hyperphosphorylation (Tau; [6]) is reported as “decreases Tau hyperphosphorylation”. For the same molecule, the “TNFa (% of vehicle group)” value (TNF-α; Aβ1-42 (5 μM, 72 H) + BDNF (50 ng/ml)) was 102.14 % of vehicle group and the “level of TNFα (in words)” value (TNF-α; BDNF 50 ng/ml) was “decreases the level of TNFα”.
